Data on six molecules can be found in PMC4834746 (Anesthesiology and Pain Medicine, 2016).

“Also recorded” adds a separate entry of the source. Counter-ions that a name gives are not always drawn. Like-named read-outs stand apart in the source and are kept apart here.

A short description of series [1]: AM404 concentration in rat plasma after oral administration of acetaminophen. The format is in vivo. The following applies: oral 20 mg/kg acetaminophen, data not shown.
Series [2] is classed as in vivo, rat.
The format of series [3] is in vivo, rat. The following applies: for half-life: t1/2, rat plasma.
The mark [4] stands for this setting: male, Crl:CD(SD), rat, brain, po, 20 mg/kg.
[5] abbreviates: rat plasma, oral 20 mg/kg acetaminophen, mean.
[6] abbreviates: rat plasma, oral 20 mg/kg acetaminophen, mean, 20 mg/kg.
[7] abbreviates: male, Crl:CD(SD), rat, plasma, po, 20 mg/kg.
[8] abbreviates: male, Crl:CD(SD), rat, plasma, po, 20 mg/kg, oral 20 mg/kg acetaminophen, mean.

Turning to `CCCCC/C=C\C/C=C\C/C=C\C/C=C\CCCC(=O)Nc1ccc(O)cc1` [AM404, N-(4-hydroxyphenyl) arachidonamide], the “concentration of AM404 in plasma” value in series [1] is “undetectable; also recorded: unable to detect”. Besides, in series [2] (calculated using AUC0-2h, oral 20 mg/kg acetaminophen, rat), the “conversion rate of acetaminophen to AM404” value was 0.0013%. Moreover, in series [2] (setting [4]), the half-life was 18.3 min and the k el is 0.000631 s⁻¹. The molecule also gave an AUC0-2h in series [2] (rat brain, oral 20 mg/kg acetaminophen, mean) of 117 pg·h/g.

For the molecule `CC(=O)Nc1ccc(O)c(SC[C@H](NC(C)=O)C(=O)O)c1` [Mer, acetaminophen mercapturate acid], in series [3] (setting [5]), the AUC0-2h was 0.167 µg·h/g, the Cmax is reported as 0.154 µg/g, the Kel is 0.890 h⁻¹ and the t1/2 came to 46.7 min. The molecule further came in with a tmax in series [3] (setting [5]) of 30 min.

In series [3] (setting [5]), `CC(=O)Nc1ccc(OS(=O)(=O)O)cc1` [Sul, acetaminophen sulfate] came in with an AUC0-2h of 22.2 µg·h/g, a Cmax of 21.7 µg/g, a Kel of 1.67 h⁻¹ and a tmax of 15 min. The t1/2 in series [3] (setting [6]) was 25 min.

In series [3] (setting [7]), `CC(=O)Nc1ccc(O[C@@H]2O[C@H](C(=O)O)[C@@H](O)[C@H](O)[C@H]2O)cc1` [Glu, acetaminophen glucuronide] had an AUC(0-t) of 7990 ng·h/mL, a maximum concentration (Cmax) of 9300 ng/mL, a k el of 0.000533 s⁻¹ and a tmax of 15 min. In series [3] (setting [8]), this molecule had a half-life of 25 min. In series [3] (setting [6]), the t1/2 was 21.7 min.

In series [3] (setting [7]), `CC(=O)Nc1ccc(O)cc1` [APAP, Acetaminophen, reference compound] showed an AUC(0-t) of 8960 ng·h/mL, a Cmax of 15800 ng/mL and a k el of 0.000644 s⁻¹. The molecule also gave a half-life in series [3] (setting [8]) of 17.9 min.

In series [3] (setting [5]), `CC(=O)Nc1ccc(O)c(SC[C@H](N)C(=O)O)c1` [Sys, Acetaminophen cysteine] showed an AUC0-2h of 0.251 µg·h/g, a Cmax of 0.258 µg/g, a Kel of 1.44 h⁻¹ and a t1/2 of 29 min. In addition, the tmax in series [3] (setting [5]) came out at 30 min.

In general, half-life refers to the time in which the quantity being followed falls by half. Read a low half-life as rapid decline. What is called Cmax is the highest concentration seen after dosing. For orientation: AUC(0-t) means the area under the concentration-time curve up to a stated or last time point.
